Consider nine compounds from ChEMBL document CHEMBL1121532, “Pyrido[2,1-b]quinazolinecarboxylic acids as orally active antiallergy agents” (1980).

Common to all, as to type: functional
The subject of assay [1] is Rattus norvegicus. In words: % inhibition of antiallergic activity in the rat passive cutaneous anaphylaxis (PCA) test after giving intraperitoneal dose of 16 mg/kg; Not significant. The note with it: ip.
The subject of assay [2] is Rattus norvegicus. In words: % inhibition of antiallergic activity in the rat passive cutaneous anaphylaxis (PCA) test after giving peroral dose of 32 mg/kg. The note with it: route oral.
Assay [3] relates to Rattus norvegicus. In words: % inhibition of antiallergic activity in the rat passive cutaneous anaphylaxis (PCA) test after giving intraperitoneal dose of 16 mg/kg. As to conditions: ip.
The species entered for assay [4] is Rattus norvegicus. In words: Dose that causes 50% inhibition in the expected wheal size when given perorally. The note with it: po, read-out: ID50 (the source's name).
Assay [5] relates to Rattus norvegicus. In words: % inhibition of antiallergic activity in the rat passive cutaneous anaphylaxis (PCA) test after giving intraperitoneal dose of 8 mg/kg. As to conditions: ip.

Consider `O=C(O)c1ccc2nc3ccccc3c(=O)n2c1`, for which the inhibition in vivo (in general, the relative decrease from the control value, in per cent) at 16 mg/kg with Rattus norvegicus [1] turned out to be 17%.
For `CC(C)c1ccc2nc3ccc(C(=O)O)cc3c(=O)n2c1`, at 32 mg/kg the inhibition in vivo in the assay with Rattus norvegicus [2] was 92%. The same compound registered an inhibition in vivo at 16 mg/kg in the assay on Rattus norvegicus [3] of 81%. Further, in the assay filed under Rattus norvegicus [4], the ED50 is 0.026 mg/kg.
`CO/N=C(\C)c1ccc2nc3ccc(C(=O)O)cc3c(=O)n2c1`: the inhibition in vivo at 16 mg/kg with Rattus norvegicus [3] was found to be 36%.
In the assay with Rattus norvegicus [1], `O=C(O)c1ccc2nc3ccccn3c(=O)c2c1` [DOQUALAST] yielded an inhibition in vivo at 16 mg/kg of 16%.
Consider `CC(C)c1ccc2nc3ccc(C(=O)O)cn3c(=O)c2c1`, for which at 32 mg/kg the inhibition in vivo in the assay with Rattus norvegicus [2] was 87%. The compound further displayed an inhibition in vivo at 16 mg/kg with Rattus norvegicus [3] of 76%. The ED50 in the assay listed under Rattus norvegicus [4] is 0.45 mg/kg.
In the assay on Rattus norvegicus [2], `O=C(O)c1cc(=O)c2c(OCC(O)COc3cccc4oc(C(=O)O)cc(=O)c34)cccc2o1` [CROMOLYN SODIUM] returned an inhibition in vivo at 32 mg/kg of 18%. In the assay with Rattus norvegicus [5], this compound came in with an inhibition in vivo at 8 mg/kg of 46%.
With `Cc1ccc2nc3ccc(C(=O)O)cc3c(=O)n2c1`, testing at 32 mg/kg in the assay with Rattus norvegicus [2] gave an inhibition in vivo of 81%. In the assay with Rattus norvegicus [3], this compound gave an inhibition in vivo at 16 mg/kg of 69%. Besides, in the assay filed under Rattus norvegicus [4], the ED50 amounted to 7.11 mg/kg.
With `CC(=O)c1ccc2nc3ccc(C(=O)O)cc3c(=O)n2c1`, the inhibition in vivo at 16 mg/kg in the assay with Rattus norvegicus [3] turned out to be 44%.
On to `Cc1ccc2nc3ccc(C(=O)O)cn3c(=O)c2c1`, for which, in the assay with Rattus norvegicus [2], the inhibition in vivo at 32 mg/kg is 83%. This compound also displayed an inhibition in vivo at 16 mg/kg in the assay on Rattus norvegicus [3] of 58%. Besides, in the assay listed under Rattus norvegicus [4], the ED50 came out at 3.53 mg/kg.
